Molecules are shown by their SMILES.

In series [1] the test system is DC2.4. As to the kind of experiment: CellTiter-Glo cell viability, DC2.4. On the set-up: effect on cell viability: unit of the concentration uncertain. Format: cell-based, murine. On the procedure: (§1) BzFβ was then examined for its effect on the viability of several murine and human cell lines and primary murine splenocytes. The cytotoxicity of BzFβ was assessed using the CellTiter-Glo […] assay system according to manufacturer's instructions to determine BzFβ's effect on the viability of several murine and human cell lines and primary murine splenocytes.
(§2) DC2.4 cell line (Dr. Kenneth Rock, University of Massachusetts), RAW 264.7 cell line (American Type Culture Collection (ATCC), Manassas, VA; TIB 71), and IMG cell line (Millipore™, Merck KGaA, Burlington, MA; cat. no. SC-C134) were each cultured in complete Dulbecco's Modified Eagle Medium (cDMEM) containing […] glucose (Gibco™, Thermo Fisher Scientific Inc., Waltham, MA; cat. no. 10566-016) and supplemented with GlutaMAX, 50 U/mL penicillin and 50 µg/mL streptomycin (Gibco™; cat. no. 15070-063) and 10% heat inactivated fetal bovine serum (FBS) (R&D Systems, Inc., Minneapolis, MN; cat. no. […]
(§3) The cytotoxicity of BzFβ was assessed using the CellTiter-Glo cell […] viability assay system […] cat. no. […] CellTiter-Glo was added 1:1 in the media and the level of chemiluminescence was measured using luminescence at wavelengths of 200 nm to 700 nm through a photomultiplier on BioTek's Synergy HTX multimode microplate reader. […]
(In general: Cellular ATP, detected with luciferase, serves as a proxy for viable cell number.)

The subject of series [2] is IMG. The series can be described thus: CellTiter-Glo cell viability, IMG. The series is classed as cell-based, murine. The note with it: Mus musculus. On the procedure:
as §1, §2, §3

As a reminder, the IC50 is the concentration needed to halve the response being measured. For `O=C(O)/C=C/c1ccc2occc2c1` [BzFβ, (2E)-3-(1-benzofuran-5-yl)prop-2-enoic acid], the IC50 in series [1] (Mus musculus, DC2.4, CellTiter-Glo) came out at 1150 µM; in series [2], 316 µM. Further, the “effect on cell viability” value in series [1] (all the cell lines examined, except HEK293T, 24 h exposure, concentrations lower than 50 µg/mL (266 (unit uncertain))) is reported as “small effects on cell viability”.

For the origin of these results see patent US20250381165A1, “Method of Use for Benzofuran Compounds” (Tampa Bay Research Institute, Inc., priority 2024, published 2025).
